For the assay, the system named is CD4-positive T cells (helper T cells). The assay is described as follows: Proliferative response ([3H]-thymidine uptake) of WT1332-347-stimulated CD4-positive T cells to peptide-pulsed dendritic cells. It counts as cell-based, human. As to conditions: cocultured with dendritic cells pulsed with 20 μg/ml peptide; HLA-DRB1*0405-positive healthy volunteer; FIG. 1. The method, then:
Peripheral blood mononuclear cells (PBMCs) were isolated by density gradient centrifugation with Ficoll-Paque from blood of an HLA-DRB1*0405-positive healthy volunteer. The resultant 8×10^6 PBMCs were suspended in 2 ml of X-VIVO 15™ medium (Camblex) containing 1% AB serum, seeded in a 6-well culture plate, and cultured for 2 hours. After cultivation, non-adherent cells were removed, and the adherent cells were washed with Hanks solution. Adherent cells were cultured in X-VIVO 15™ medium containing 1% AB serum, 1000 U/ml IL-4 and 1000 U/ml GM-CSF. On days 2 and 4 of cultivation, one-half of medium was replaced by fresh medium. On day 6, TNF-α was added to make the final concentration of 100 U/ml. Cells existing on day 7 were used as dendritic cells in the experiment.
Blood obtained from the same healthy volunteer as in (1) above was used. Blood was diluted by 2-times with RPMI medium. To about 100 ml of the diluted blood was added antibody cocktail, RosetteSep™ (Stemcell) for separation of CD4-positive T cells, and the mixture was left to stand at room temperature for 20 minutes. CD4-positive T cells were then collected by density gradient centrifugation with Ficoll-Paque.
Dendritic cells prepared in (1) above were seeded in 24-well culture plate at 3×10^5 cells/well, and a peptide of SEQ ID NO: 24 was added up to 50 μg/ml. After 4-hour-cultivation, cell growth was stopped by X-ray irradiation (25 Gy). CD4-positive cells prepared in (2) above were added to each well at 3×10^6 cells/well and cocultured with dendritic cells. As medium, X-VIVO 15™ medium containing 1% AB serum was used. After the cultivation was started, one half of medium was replaced with fresh medium every 2 days and IL-2 was added up to 20 U/ml. […]
After the third stimulation, T cells were recovered and seeded in 96-well plate at 3×10^4 cells/well. […] [^3H]-thymidine incorporated by cells was then measured using β-scintillation counter.

Regarding “KRYFKLSHLQMHSRKH [WT1332-347, Position 332-347 of human WT1]”, the “proliferative response of CD4-positive T cells stimulated with WT1332-347 ([3H]-thymidine uptake)” value is reported as “showed proliferative response”.

The record behind these values is US10124046B2, “HLA-DR-binding antigen peptide derived from WT1” (International Institute of Cancer Immunology, Inc., priority 2003, dated 2018).
